Read-outs that look alike come from different tables or passages of the source.
How the values were obtained:
[1] = PBPK modeling of schizophrenia patients, FDA label and modified dosing regimens; set-up: species or system human; conditions: for Days Reduced to Reach Pharmacokinetic Endpoints: EC50 / Days Reduced to Reach Pharmacokinetic Endpoints: EC80 / Days Reduced to Reach Pharmacokinetic Endpoints: Steady State: modified regimen of Table F vs FDA label, Obese
Source text: PBPK Modeling of Patients Dosed with Brexpiprazole According to the FDA Label
Although the PBPK modeling was based on the dosing regimen for schizophrenia according to the FDA label (REXULTI®, 3/2020), pharmacokinetic parameters are dose-dependent and expected to be similar in MDD.
In order to simulate brexpiprazole under various conditions, a whole-body PBPK model was constructed to capture the drug's kinetics in major tissues. Model tissue compartments included adipose, bone, brain, large intestine, small intestine, heart, kidney, liver, lung, muscle, spleen, stomach, and skin tissues, as well as venous and arterial blood compartments. In order to accurately capture first-pass clearance effects on the drug, the model also included correct representation of the gastrointestinal tract organs and the liver. […] Drug distribution into each tissue compartment was modeled assuming perfusion-limited kinetics, with partitioning into tissue described by a partition coefficient (Kp) estimated using methods described by Poulin and Theil (2002). Brexpiprazole-specific biochemical parameters such as the log of octanol:water partition coefficient (logP), negative log acid dissociation constant (pKa), fraction unbound in the plasma (fup), blood:plasma concentration ratio (BP), and clearance were obtained from literature; additional physiochemical properties used to calculate Kps were obtained via DrugBank. […] Simulations were carried out in a virtual population of 500 normal-weight and 500 obese individuals with age- and sex-specific physiological parameters (i.e. tissue flows and volumes) sampled from the National Health and Nutrition Examination Survey (NHANES) dataset.
PBPK Modeling of Schizophrenia Patients Treated with Higher Doses According to Modified Methods
A modified dosing regimen was developed so that obese and CYP2D6 PM patients reach therapeutic levels earlier (Table F). […] On day 8, patients returned to administering the recommended dose once daily. […] On day 15, patients returned to administering the recommended dose once daily.

[2] = cited from earlier work
[3] = brexpiprazole patients; cited from earlier work
[4] = cited from earlier work; remark: listed apart in the source

O=c1ccc2ccc(OCCCCN3CCN(c4cccc5sccc45)CC3)cc2[nH]1 [Brexpiprazole, 7-{4-[4-(1-Benzothiophen-4-yl)piperazin-1-yl]butoxy}quinolin-2(1H)-one]
Days Reduced to Reach Pharmacokinetic Endpoints: EC50 ([1]; EM): 3 days
Days Reduced to Reach Pharmacokinetic Endpoints: EC80 ([1]; EM): 3 days
Days Reduced to Reach Pharmacokinetic Endpoints: Steady State ([1]; EM): -4 days
Days Reduced to Reach Pharmacokinetic Endpoints: EC50 ([1]; PM): 2 days
Days Reduced to Reach Pharmacokinetic Endpoints: EC80 ([1]; PM): 5 days
Days Reduced to Reach Pharmacokinetic Endpoints: Steady State ([1]; PM): -29 days
time to reach therapeutic concentrations vs once daily dosing ([1]; schizophrenia, normal-weight CYP2D6 PM, Modified Dosing Regimen 3): three days faster
time to reach therapeutic concentrations vs FDA label dosing ([1]; schizophrenia, obese CYP2D6 EM, twice the starting and recommended daily doses for the first 7 days): three days faster
time to reach therapeutic concentrations vs once daily dosing ([1]; schizophrenia, obese CYP2D6 PM, twice the starting and recommended daily doses for the first 14 days): five days faster
decrease of baseline clearance by CYP2D6 PM status ([2]; CYP2D6 PM): ~30%
brexpiprazole clearance due to CYP3A4 ([2]; based on the literature): 46.7%
clearance due to other routes ([2]; based on the literature): 10%
remaining clearance due to CYP2D6 ([2]; based on the literature): 43.3%
effect of weight on the pharmacokinetics of brexpiprazole ([2]; previous studies, no patients with BMI>35 kg/m^2): less than 20%
renal clearance ([2]; share of brexpiprazole clearance): ~1%
akathisia rates [3]: dose-dependent
AUC Observed ([4]; NDA Study1, IV, 0.25 mg): 172 ng·h/mL
Cmax Observed ([4]; NDA Study1, IV, 0.25 mg): 4.73 ng/mL
Tmax Observed ([4]; NDA Study1, IV, 0.25 mg): 1 h
AUC Observed ([4]; NDA Study1, PO, 0.2 mg): 123 ng·h/mL
Cmax Observed ([4]; NDA Study1, PO, 0.2 mg): 2.62 ng/mL
Tmax Observed ([4]; NDA Study1, PO, 0.2 mg): 2 h
AUC Observed ([4]; NDA Study1, PO, 0.5 mg): 287 ng·h/mL
Cmax Observed ([4]; NDA Study1, PO, 0.5 mg): 6.64 ng/mL
Tmax Observed ([4]; NDA Study1, PO, 0.5 mg): 4 h
AUC Observed ([4]; NDA Study1, PO, 1 mg): 636 ng·h/mL
Cmax Observed ([4]; NDA Study1, PO, 1 mg): 11.70 ng/mL
Tmax Observed ([4]; NDA Study1, PO, 1 mg): 6 h
AUC Observed ([4]; NDA Study1, PO, 2 mg): 1690 ng·h/mL
Cmax Observed ([4]; NDA Study1, PO, 2 mg): 22.10 ng/mL
Tmax Observed ([4]; NDA Study1, PO, 2 mg): 6 h
AUC Observed ([4]; NDA Study2, PO, 2 mg): 2160 ng·h/mL
Cmax Observed ([4]; NDA Study2, PO, 2 mg): 24.60 ng/mL
Tmax Observed ([4]; NDA Study2, PO, 2 mg): 4 h
AUC Observed ([4]; NDA Study2, PO, 4 mg): 2760 ng·h/mL
Cmax Observed ([4]; NDA Study2, PO, 4 mg): 47.20 ng/mL
Tmax Observed ([4]; NDA Study2, PO, 4 mg): 6 h
AUC Observed ([4]; NDA Study2, PO, 6 mg): 5230 ng·h/mL
Cmax Observed ([4]; NDA Study2, PO, 6 mg): 71.10 ng/mL
Tmax Observed ([4]; NDA Study2, PO, 6 mg): 6 h
AUC Observed ([4]; NDA Study2, PO, 8 mg): 7920 ng·h/mL
Cmax Observed ([4]; NDA Study2, PO, 8 mg): 79.20 ng/mL
Tmax Observed ([4]; NDA Study2, PO, 8 mg): 6 h
